Peptide text beside a SMILES is read from it. * marks the point of attachment. Cbz = O=C(OCc1ccccc1)*; CH2F = FC*
What was measured:
[1] = system: MIA PaCa-2 cells; experiment: Viability of AJO14-treated cells in presence of cell death inhibitors; type: cell-based, human; conditions: MIA PaCa-2, 24 h; Z-VAD-FMK (20 µM), Nec-1 (40 µM), or Olaparib (25 μM)
[2] = system: MIA PaCa-2 cells; experiment: Oxygen consumption rate, Seahorse XF; type: cell-based, human; conditions: MIA PaCa-2, 24 h, AJO14 (10 μM) with increasing concentrations of Olaparib
[3] = biological target: hERG channel (Homo sapiens, UniProt Q12809); experiment: Predictor hERG Fluorescence Polarization assay; type: binding; conditions: read-out: hERG channel inhibition (IC50), 0.1-80 μM
Sequence of hERG channel (Q12809 whole entry): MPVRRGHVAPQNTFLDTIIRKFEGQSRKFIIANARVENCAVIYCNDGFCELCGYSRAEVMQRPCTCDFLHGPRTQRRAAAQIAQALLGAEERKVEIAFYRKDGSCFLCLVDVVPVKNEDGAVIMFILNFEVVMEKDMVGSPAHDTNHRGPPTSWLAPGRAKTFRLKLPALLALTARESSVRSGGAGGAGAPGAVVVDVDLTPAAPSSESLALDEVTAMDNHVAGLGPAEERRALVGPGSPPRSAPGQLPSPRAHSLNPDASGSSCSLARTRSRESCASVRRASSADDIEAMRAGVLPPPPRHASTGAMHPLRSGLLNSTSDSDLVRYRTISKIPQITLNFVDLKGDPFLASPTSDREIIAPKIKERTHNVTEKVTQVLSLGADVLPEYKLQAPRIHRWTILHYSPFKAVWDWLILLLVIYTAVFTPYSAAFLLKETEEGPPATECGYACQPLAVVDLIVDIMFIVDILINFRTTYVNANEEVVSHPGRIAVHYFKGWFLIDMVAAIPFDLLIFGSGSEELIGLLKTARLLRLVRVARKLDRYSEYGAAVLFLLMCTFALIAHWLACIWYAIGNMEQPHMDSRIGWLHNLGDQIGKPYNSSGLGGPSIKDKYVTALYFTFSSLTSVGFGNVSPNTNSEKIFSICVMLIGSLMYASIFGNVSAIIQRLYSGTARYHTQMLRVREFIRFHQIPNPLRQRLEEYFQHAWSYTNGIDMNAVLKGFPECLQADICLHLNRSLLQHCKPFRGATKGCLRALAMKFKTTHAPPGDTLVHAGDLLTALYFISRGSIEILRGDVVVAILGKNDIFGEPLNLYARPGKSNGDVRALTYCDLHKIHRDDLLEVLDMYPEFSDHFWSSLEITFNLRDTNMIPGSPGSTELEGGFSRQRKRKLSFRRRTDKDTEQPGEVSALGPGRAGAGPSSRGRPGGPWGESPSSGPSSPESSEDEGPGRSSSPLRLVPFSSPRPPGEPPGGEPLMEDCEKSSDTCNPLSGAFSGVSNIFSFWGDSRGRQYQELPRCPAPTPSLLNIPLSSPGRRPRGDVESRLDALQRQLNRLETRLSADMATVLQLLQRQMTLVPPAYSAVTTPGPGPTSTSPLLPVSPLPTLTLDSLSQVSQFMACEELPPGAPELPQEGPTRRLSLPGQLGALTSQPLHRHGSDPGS

SMILES | effect of pretreatment on cell viability of cells treated with AJO14 [1] | effect on mitochondrial metabolism failure (OCR) caused by AJO14 [2] | IC50 [3] [nM]
CN1C(=O)C(Cc2c[nH]c3ccccc23)NC1=S (centres unmarked) [Necrostatin] | partially improved the cell viability |  | 
O=C(c1cc(Cc2n[nH]c(=O)c3ccccc23)ccc1F)N1CCN(C(=O)C2CC2)CC1 [Olaparib] | partially improved the cell viability | could reverse the strong mitochondrial metabolism failure caused by AJO14 | 
COC(=O)C[C@H](NC(=O)[C@H](C)NC(=O)[C@@H](NC(=O)OCc1ccccc1)C(C)C)C(=O)CF [Z-VAD-FMK] (Cbz-Val-Ala-Asp(OMe)-CH2F) | partially improved the cell viability |  | 
CN(C)CCN1CCN(CCCN2c3ccccc3Sc3ccc(C(F)(F)F)cc32)CC1 [ZZW-115] |  |  | 2000
